Laboratory results from US20240317809A1, “Engineered Antimicrobial Peptides and Usage Thereof” (University of Pittsburgh-Of the Commonwealth System of …, priority 2021, published 2024).
Values joined by “and” are separate entries in the source; they are usually repeats but may differ in a detail not shown here. Equal values may be shown once. Peptide text beside a SMILES is read from it.

Columns and labels:
E. coli [1] = assay: MIC, CLSI protocol, planktonic ESKAPE pathogens; type: cell-based; settings: N=8
Protocol: (§1) Standard Clinical and Laboratory Standards Institute (CLSI) protocol was used to measure the minimum inhibitory concentration (MIC) against each organism. Biofilm model: Implant material was prepared from 0.6 mm diameter stainless steel Kirschner wire and plated at 0.5×10^6 CFU/ml. Mature biofilm developed over 48 hours, wires were washed, and then treated with 1 mg/mL WLBU-2 (SEQ ID: 10) in PBS (pH 7.4) for 5, 15, and 30 minutes. Quantitative culture (colony forming unit, CFU) analysis was then completed.
(§2) ESKAPE pathogens were selected from a large clinical library of MDR and non-MDR organisms (n>100 organism). […] At 15 minutes, organisms had greater than a 3 log reduction in biofilm mass (E. faecium: 3 log 10; S. aureus: 5 log 10; K. pneumoniae 6 log 10; A. baumannii 5 log 10; P. aeruginosa 8 log 10; E. cloacae 7 log 10; E. coli 5 log 10).

E. cloacae = assay: MIC, CLSI protocol, planktonic ESKAPE pathogens; type: cell-based; settings: N=2
Protocol: as §1, §2

A. baumannii = assay: MIC, CLSI protocol, planktonic ESKAPE pathogens; type: cell-based, Acinetobacter baumannii; settings: N=24
Protocol: as §1, §2

K. pneumoniae = assay: MIC, CLSI protocol, planktonic ESKAPE pathogens; type: cell-based, Klebsiella pneumoniae; settings: N=8
Protocol: as §1, §2

S. aureus = assay: MIC, CLSI protocol, planktonic ESKAPE pathogens; type: cell-based, Staphylococcus aureus; settings: N=4
Protocol: as §1, §2

P. aeruginosa = assay: MIC, CLSI protocol, planktonic ESKAPE pathogens; type: cell-based, Pseudomonas aeruginosa; settings: N=20
Protocol: as §1, §2

bacterial burden = assay: Survival study with rabbit PJI model; type: in vivo; settings: for survival rates of rabbits as a function of days post-infection: observed up to 14 days (Group 4: 28 days)
Protocol: In the following Examples 1-5, the administered WLBU-2 formulations were prepared as described in this paragraph. Exemplary pharmaceutical formulations comprising WLBU-2 were prepared at concentrations of 0.5 mg/mL and 1.0 mg/mL in vehicle (dPBS), by formulating under aseptic conditions. WLBU-2 was added while mixing to approximately 90% of volume with vehicle, and mixed until the solution was clear. The solution was adjusted to pH 7.4 using a 1% NaOH solution. dPBS was added quantity sufficient to final volume. The final pH of the solution was read and recorded.
This example illustrates the antibacterial activity an exemplary formulation of WLBU-2, beta lactam antibiotic, and in combination in reducing CFU in vivo with varying concentrations and time of exposure.
A bone tunnel in the tibial canal was created using a drill with a 1.2 mm or 1.6 mm tungsten carbide drill bit. The bone tunnel was then dried and treated to simulate acute human PJI following primary arthroplasty. A Kirschner wire implant was placed in the bone tunnel and the wound closed. Prior to closure of the superficial skin layer, 0.1 mL of 2×10^6 planktonic bacteria (CFU/rabbit) in saline was injected into the joint space. A closure was performed, and a biofilm was allowed to become established over a period of 2 days.
In each group, the joint space was reopened and treated with I&D at 2 days post-infection. Group 1 received neither cefazolin nor WLBU-2. Group 2 received cefazolin but not WLBU-2. Group 3 received WLBU-2 but not the cefazolin. Group 4 received both cefazolin and WLBU-2 treatment. Where applicable, cefazolin was delivered subcutaneously at 10 mg/kg BID for 5 days. Where applicable, WLBU-2 was delivered with 2 ml of WLBU-2 at 1 mg/ml with exposure of 15 minutes. […] When an animal was sick or needed to be euthanized, the implant and a part of the tibia was collected postmortem and CFU analysis was performed. All surviving animals (except for Group 4) were euthanized on day 14 and the implant and tibia were collected most mortem.

S. caprae = assay: Human patient knee explant study (Example 5), ex vivo CFU analysis; type: cell-based; settings: treated vs untreated explant of same patient, 1 mg/mL, 15 minutes
Protocol: (§3) Patients diagnosed with chronic PJI were prospectively enrolled (n=17). All patients met the diagnosis of PJI as defined by the 2018 International Consensus Meeting criteria. The implant was first washed with 50 ml Dulbecco's PBS (dPBS) and submerged ex vivo in an expected clinical exposure of 1 mg/mL WLBU-2 (SEQ ID: 10) in Dulbecco's PBS (dPBS) adjusted to pH 7.4 for 15 minutes. After treatment, the sample was washed with 50 mL of dPBS and sonicated in PBS containing 1% Tween 20 for 5 minutes. After sonication, 100 microliters of the implant sonication fluid was serially diluted, and plated for quantitative culture (CFU analysis). The remaining explanted implant from the same patient served as a control and was processed similarly but without exposure to WLBU-2 (SEQ ID: 10).

S. aureus (MSSA) = assay: as above; type: cell-based; settings: treated vs untreated explant of same patient, 1 mg/mL, 15 minutes
Protocol: as §3

E. coli [2] = assay: as above; type: cell-based; settings: treated vs untreated explant of same patient, 1 mg/mL, 15 minutes
Protocol: as §3

S. aureus (MRSA) = assay: as above; type: cell-based; settings: treated vs untreated explant of same patient, 1 mg/mL, 15 minutes
Protocol: as §3

[3] = tested on: Haemophilus parainfluenzae; assay: as above; type: cell-based; settings: treated vs untreated explant of same patient, 1 mg/mL, 15 minutes
Protocol: as §3

S. hemolyticus = assay: as above; type: cell-based; settings: treated vs untreated explant of same patient, 1 mg/mL, 15 minutes
Protocol: as §3

S. dysgalactiae = assay: as above; type: cell-based; settings: treated vs untreated explant of same patient, 1 mg/mL, 15 minutes
Protocol: as §3

E. faecalis = assay: as above; type: cell-based; settings: treated vs untreated explant of same patient, 1 mg/mL, 15 minutes
Protocol: as §3

[4] = tested on: gram-positive and gram-negative bacteria on infected prostheses; assay: Human patient knee explant study (Example 5), ex vivo CFU analysis, all implants; type: cell-based; settings: 1 mg/mL in dPBS pH 7.4, 15 minutes; vs untreated implant of same patient
Protocol: as §3

[5] = Local or systemic toxicity in animal models; type: in vivo
[6] = cefazolin 10 mg/kg sc BID 5 days and/or WLBU-2 2 ml at 1 mg/ml 15 minutes, vs untreated Group 1
[7] = cefazolin 10 mg/kg sc BID 5 days and/or WLBU-2 2 ml at 1 mg/ml 15 minutes, vs untreated Group 1, listed as cefazolin

## CN(C)c1cc(NC(=O)CNC(C)(C)C)c(O)c2c1C[C@H]1C[C@H]3[C@H](N(C)C)C(O)=C(C(N)=O)C(=O)[C@@]3(O)C(O)=C1C2=O [TIG, tigecycline]
E. coli [1]
  minimum inhibitory concentration (MIC): .25-0.5
E. cloacae
  minimum inhibitory concentration (MIC): 0.5-2
A. baumannii
  minimum inhibitory concentration (MIC): 1-16
K. pneumoniae
  minimum inhibitory concentration (MIC): 0.5-2

## C[C@H]1COc2c(N3CCN(C)CC3)c(F)cc3c(=O)c(C(=O)O)cn1c23 [LVX, levofloxacin]
S. aureus
  minimum inhibitory concentration (MIC): .015-.03

## C[C@@H](O)[C@H]1C(=O)N2C(C(=O)O)=C(SCCN=CN)C[C@H]12 [IPM, imipenem]
S. aureus
  minimum inhibitory concentration (MIC): .015-.03
E. cloacae
  minimum inhibitory concentration (MIC): 0.25

## colistin
E. coli [1]
  minimum inhibitory concentration (MIC): .06-.25
E. cloacae
  minimum inhibitory concentration (MIC): .06-.25
P. aeruginosa
  minimum inhibitory concentration (MIC): .12-2^
K. pneumoniae
  minimum inhibitory concentration (MIC): .06-16

## CN[C@H](CC(C)C)C(=O)N[C@H]1C(=O)N[C@@H](CC(N)=O)C(=O)N[C@H]2C(=O)N[C@H]3C(=O)N[C@H](C(=O)N[C@H](C(=O)O)c4cc(O)cc(O)c4-c4cc3ccc4O)[C@H](O)c3ccc(c(Cl)c3)Oc3cc2cc(c3O[C@@H]2O[C@H](CO)[C@@H](O)[C@H](O)[C@H]2O[C@H]2C[C@](C)(N)[C@H](O)[C@H](C)O2)Oc2ccc(cc2Cl)[C@H]1O [VAN, vancomycin]
S. aureus
  minimum inhibitory concentration (MIC): 1

## Cc1nnc(SCC2=C(C(=O)O)N3C(=O)[C@@H](NC(=O)Cn4cnnn4)[C@H]3SC2)s1 [Cefazolin]
Bacterial burden; I&D 2 days post-infection, cefazolin 10 mg/kg sc BID 5 days and/or WLBU-2 2 ml at 1 mg/ml 15 minutes
  body weight as a function of days post infection: No significance
Bacterial burden; [6]
  bacterial burden of collected implants (CFU analysis), reduction: significantly lower bacterial burden
  bacterial burden of collected tibia (bone CFU analysis), reduction: 2.6 log
  total CFU (implant and bone), reduction in total bacterial burden: Significant reductions in total bacterial burden
Bacterial burden; [7]
  bacterial burden of collected tibia (bone CFU analysis), reduction: significantly lower bacterial burden
  total CFU (implant and bone), reduction in total bacterial burden: significantly lower bacterial burden
Bacterial burden; vs untreated Group 1
  survival rates of rabbits as a function of days post-infection: improved survival in comparison to Group 1
Bacterial burden; vs untreated Group 1, listed as cefazolin
  survival rates of rabbits as a function of days post-infection: second-best survival rates

## CC(=O)NC[C@H]1CN(c2ccc(N3CCOCC3)c(F)c2)C(=O)O1 [LZD, linezolid]
S. aureus
  minimum inhibitory concentration (MIC): 4

## CC(C)[C@H](NC(=O)[C@H](Cc1c[nH]c2ccccc12)NC(=O)[C@H](CCCNC(=N)N)NC(=O)[C@H](CCCNC(=N)N)NC(=O)[C@@H](NC(=O)[C@@H](NC(=O)[C@H](CCCNC(=N)N)NC(=O)[C@@H](NC(=O)[C@@H](NC(=O)[C@H](CCCNC(=N)N)NC(=O)[C@H](CCCNC(=N)N)NC(=O)[C@H](Cc1c[nH]c2ccccc12)NC(=O)[C@@H](NC(=O)[C@H](CCCNC(=N)N)NC(=O)[C@H](CCCNC(=N)N)NC(=O)[C@@H](NC(=O)[C@H](CCCNC(=N)N)NC(=O)[C@H](CCCNC(=N)N)NC(=O)[C@@H](NC(=O)[C@H](Cc1c[nH]c2ccccc12)NC(=O)[C@H](CCCNC(=N)N)NC(=O)[C@@H](N)CCCNC(=N)N)C(C)C)C(C)C)C(C)C)C(C)C)C(C)C)C(C)C)C(C)C)C(=O)N[C@@H](CCCNC(=N)N)C(=O)N[C@@H](CCCNC(=N)N)C(=O)O [WLBU-2, RRWVRRVRRVWRRVVRVVRRWVRR] (H-RRWVRRVRRVWRRVVRVVRRWVRR-OH)
S. caprae
  Log reduction: 7.7
S. aureus (MSSA)
  Log reduction: 3.6
E. coli [2]
  Log reduction: 6.2 and 5.9
S. aureus (MRSA)
  Log reduction: 7.7
[3]
  Log reduction: 7.7
S. hemolyticus
  Log reduction: 2.9
S. dysgalactiae
  Log reduction: 4.0
E. faecalis
  Log reduction: 6.7
[4]
  mean log reduction: 6 log
  range of log reduction: 2-7.70 log
[5]; 1 mg/mL for 15 minutes, murine and rabbit PJI animal models
  toxicity to local tissue: non-toxic to local tissue
[5]; therapeutic range of dosing in animal models
  local or systemic toxicity: does not have significant local or systemic toxicity
